ChEMBL document CHEMBL4000218, “Explicit treatment of active-site waters enhances quantum mechanical/implicit solvent scoring: Inhibition of CDK2 by new pyrazolo[1,5-a]pyrimidines” (Eur J Med Chem, 2017)

Target: Cyclin-dependent kinase 2/cyclin E1 (Homo sapiens, UniProt P24941)
Experiment: Inhibition of CDK2/cyclin E (unknown origin) expressed in baculovirus infected insect Sf9 cells using histone H1 as substrate in presence of [gamma-33P]ATP

SMILES	IC50
CN(C)C(=O)c1ccc(-c2ccc(-c3cc(NCc4cccnc4)n4nccc4n3)cc2)cc1	1970 nM
OCc1ccc(-c2ccc(-c3cc(NCc4cccnc4)n4nccc4n3)cc2)cc1	6110 nM
NC(=O)c1ccc(-c2ccc(-c3cc(NCc4cccnc4)n4ncc(Br)c4n3)cc2)cc1O	52 nM
COc1cc(-c2ccc(-c3cc(NCc4cccnc4)n4nccc4n3)cc2)ccc1C(N)=O	5530 nM
CCc1cnn2c(NCc3cccnc3)cc(-c3ccc(-c4ccc(C(N)=O)cc4)cc3)nc12	18 nM
c1ccc(-c2ccc(-c3cc(NCc4cccnc4)n4nccc4n3)cc2)cc1	12600 nM
Nc1ccc(-c2ccc(-c3cc(NCc4cccnc4)n4ncc(Br)c4n3)cc2)cc1	140 nM
Oc1ccc(-c2ccc(-c3cc(NCc4cccnc4)n4ncc(Br)c4n3)cc2)cc1	140 nM
CCc1cnn2c(NCc3cccnc3)cc(-c3ccc(-c4ccc(CO)cc4)cc3)nc12	130 nM
NC(=O)c1ccc(-c2ccc(-c3cc(NCc4cccnc4)n4ncc(Br)c4n3)cc2)cc1	37 nM
N#CCCc1cc(-c2ccc(-c3cc(NCc4cccnc4)n4ncc(Br)c4n3)cc2)ccc1C(N)=O	53 nM
OCc1ccc(-c2ccc(-c3cc(NCc4cccnc4)n4ncc(Br)c4n3)cc2)cc1	45 nM
Oc1ccc(-c2ccc(-c3cc(NCc4cccnc4)n4nccc4n3)cc2)cc1	3860 nM
N#CCCc1cc(-c2ccc(-c3cc(NCc4cccnc4)n4nccc4n3)cc2)ccc1C(N)=O	5450 nM

Further molecules by falling IC50, results first:

IC50	SMILES
4910 nM	Nc1ccc(-c2ccc(-c3cc(NCc4cccnc4)n4nccc4n3)cc2)cc1
3940 nM	NC(=O)c1ccc(-c2ccc(-c3cc(NCc4cccnc4)n4nccc4n3)cc2)cc1
2670 nM	NC(=O)c1ccc(-c2ccc(-c3cc(NCc4cccnc4)n4nccc4n3)cc2)cc1O
490 nM	Brc1cnn2c(NCc3cccnc3)cc(-c3ccc(-c4ccccc4)cc3)nc12
64 nM	CN(C)C(=O)c1ccc(-c2ccc(-c3cc(NCc4cccnc4)n4ncc(Br)c4n3)cc2)cc1
31 nM	CCc1cnn2c(NCc3cccnc3)cc(-c3ccc(-c4ccc(C(N)=O)c(O)c4)cc3)nc12
15 nM	NC(=O)c1ccc(-c2ccc(-c3cc(NCc4cccnc4)n4ncc(Br)c4n3)cc2)c(O)c1
